According to US10941157B2, “Pesticidal compositions and uses thereof” (Gilead Apollo, LLC, priority 2015, dated 2021):
In brackets after ≈: the same amount, converted by molar mass. Where two headings read alike, the source gives them in different places.

Legend:
Type in all cases: cell-based
Botrtyis cinerea (Bc) = test: In vitro pathogen growth inhibition assay, Bc; details: 48 h
Method: (§1) A growth inhibition assay was conducted to determine the ability of compounds to control the growth of fungal pathogens, such as Botrtyis cinerea (Bc), Collectotrichum graminicola (Cg), Diplodia maydis (Dm), Fusarium moniliforme (Fm), Fusarium virguliforme (Fv), Phytophthora capsici (Pc), Rhizoctonia solani (Rs), and Septoria tritici (St). The compounds listed in Table 1 were each dissolved in DMSO at 2.5 mg/ml to produce compound stock solutions (“stocks”). […] Negative controls on each plate included 2% DMSO, water, and a blank (media+2% DMSO). Fungal spores were isolated from previously sub-cultured plates of Botrtyis cinerea (Bc), Collectotrichum graminicola (Cg), Diplodia maydis (Dm), Fusarium moniliforme (Fm), Fusarium virguliforme (Fv), Phytophthora capsici (Pc), and Septoria tritici (St). The isolated spores were diluted to individual concentrations with a 17% V8 liquid media. For Rhizoctonia solani (Rs), 1.5 mm mycelial plugs were used in place of spores and ¼ Potato Dextrose Broth (PDB) was used for dilution. The spore concentrations and plug sizes were based on growth curves generated at 48 hours for each pathogen. In a second 96-well plate, the spores or mycelial plugs, media, diluted compound solutions, and controls were combined. Once the compound was added, a true final concentration of compound in each well was measured by an OD600 reading, which adjusted for any compound precipitation that might have occurred in the well. Plate readings were repeated at both 24 and 48 hours. The blank negative control was used as a background subtraction. Additional visual ratings were performed at both 24 and 48 hours for checking on precipitation and confirming efficacy. […] Both tables list the concentration of each compound that was sufficient to ≥90% inhibition of growth for each of the fungal pathogens listed above. In addition, some of compounds were tested in a yeast growth inhibition assay for Saccharomyces cerevisiae (Sc). Table 2 lists the concentration of the tested compound that was sufficient to ≥75% inhibition of Saccharomyces cerevisiae (Sc).

[1] = tested on: Collectotrichum graminicola (Cg); test: In vitro pathogen growth inhibition assay, Cg; details: 48 h
Method: as §1

Diplodia maydis (Dm) = test: In vitro pathogen growth inhibition assay, Dm; details: Stenocarpella maydis, 48 h
Method: as §1

[2] = tested on: Fusarium moniliforme (Fm); test: In vitro pathogen growth inhibition assay, Fm; details: Fusarium verticillioides
Method: as §1

[3] = tested on: Fusarium virguliforme (Fv); test: In vitro pathogen growth inhibition assay, Fv
Method: as §1

[4] = tested on: Phytophthora capsici (Pc); test: In vitro pathogen growth inhibition assay, Pc; details: 48 h
Method: as §1

Rhizoctonia solani (Rs) = test: In vitro pathogen growth inhibition assay, Rs (mycelial plugs); details: mycelial plugs; for IC90: Rhizoctonia solani, 48 h
Method: as §1

Septoria tritici (St) = test: In vitro pathogen growth inhibition assay, St; details: for IC90: Zymoseptoria tritici, 48 h
Method: as §1

[5] = ≥90% growth inhibition, 48 hours, vs 2% DMSO control, read-out: Compound Concentration (ppm) sufficient for ≥90% inhibition of Bc
[6] = ≥90% growth inhibition, 48 hours, vs 2% DMSO control, read-out: Compound Concentration (ppm) sufficient for ≥90% inhibition of Cg
[7] = ≥90% growth inhibition, 48 hours, vs 2% DMSO control, read-out: Compound Concentration (ppm) sufficient for ≥90% inhibition of Dm
[8] = ≥90% growth inhibition, 48 hours, vs 2% DMSO control, read-out: Compound Concentration (ppm) sufficient for ≥90% inhibition of Fm
[9] = ≥90% growth inhibition, 48 hours, vs 2% DMSO control, read-out: Compound Concentration (ppm) sufficient for ≥90% inhibition of Fv
[10] = ≥90% growth inhibition, 48 hours, vs 2% DMSO control, read-out: Compound Concentration (ppm) sufficient for ≥90% inhibition of Pc
[11] = ≥90% growth inhibition, 48 hours, vs 2% DMSO control, read-out: Compound Concentration (ppm) sufficient for ≥90% inhibition of Rs
[12] = ≥90% growth inhibition, 48 hours, vs 2% DMSO control, read-out: Compound Concentration (ppm) sufficient for ≥90% inhibition of St
[13] = ≥90% inhibition, 48 hours vs 2% DMSO control, read-out: Compound Concentration (ppm) sufficient for ≥90% inhibition of growth, Bc
[14] = ≥90% inhibition, 48 hours vs 2% DMSO control, read-out: Compound Concentration (ppm) sufficient for ≥90% inhibition of growth, Cg
[15] = ≥90% inhibition, 48 hours vs 2% DMSO control, read-out: Compound Concentration (ppm) sufficient for ≥90% inhibition of growth, Dm
[16] = ≥90% inhibition, 48 hours vs 2% DMSO control, read-out: Compound Concentration (ppm) sufficient for ≥90% inhibition of growth, Fm
[17] = ≥90% inhibition, 48 hours vs 2% DMSO control, read-out: Compound Concentration (ppm) sufficient for ≥90% inhibition of growth, Fv
[18] = ≥90% inhibition, 48 hours vs 2% DMSO control, read-out: Compound Concentration (ppm) sufficient for ≥90% inhibition of growth, Pc
[19] = ≥90% inhibition, 48 hours vs 2% DMSO control, read-out: Compound Concentration (ppm) sufficient for ≥90% inhibition of growth, Rs
[20] = ≥90% inhibition, 48 hours vs 2% DMSO control, read-out: Compound Concentration (ppm) sufficient for ≥90% inhibition of growth, St
[21] = ≥90% growth inhibition, 48 hours, vs 2% DMSO control

Compound	IC90 (Botrtyis cinerea (Bc); [5]) [µg/mL]	IC90 [1, 6] [µg/mL]	IC90 (Diplodia maydis (Dm); [7]) [µg/mL]	IC90 [2, 8] [µg/mL]	IC90 [3, 9] [µg/mL]	IC90 [4, 10] [µg/mL]	IC90 (Rhizoctonia solani (Rs); [11]) [µg/mL]	IC90 (Septoria tritici (St); [12]) [µg/mL]	IC90 (Botrtyis cinerea (Bc); [13]) [µg/mL]	IC90 [1, 14] [µg/mL]	IC90 (Diplodia maydis (Dm); [15]) [µg/mL]	IC90 [2, 16] [µg/mL]	IC90 [3, 17] [µg/mL]	IC90 [4, 18] [µg/mL]	IC90 (Rhizoctonia solani (Rs); [19]) [µg/mL]	IC90 (Septoria tritici (St); [20]) [µg/mL]	Compound Concentration (ppm) sufficient for ≥90% inhibition of Rs (Rhizoctonia solani (Rs); [21]) [ppm]	Compound Concentration (ppm) sufficient for ≥90% inhibition of St (Septoria tritici (St); [21]) [ppm]
CC(=O)Oc1ccccc1[C@H](Cn1c(=O)n(C(C)(C)C(=O)NC(C)C)c(=O)c2c(C)c(-n3nccn3)sc21)OCCC#N [Compound I-304]	2 (≈ 3.29 µM)	2 (≈ 3.29 µM)	≥ 10	0.08 (≈ 0.132 µM)	0.4 (≈ 0.658 µM)	> 50	2 (≈ 3.29 µM)	> 50	–	–	–	–	–	–	–	–	–	–
COc1ccc(F)cc1[C@H](Cn1c(=O)n(C(C)(C)C(=O)NC(C)C)c(=O)c2c(C)c(-n3cccn3)sc21)O[C@H]1CC[C@@H](O)CC1 [Compound I-049]	–	–	–	–	–	–	–	–	0.4 (≈ 0.623 µM)	50 (≈ 77.9 µM)	2 (≈ 3.12 µM)	0.08 (≈ 0.125 µM)	2 (≈ 3.12 µM)	> 50	2 (≈ 3.12 µM)	> 50	–	–
CCNC(=O)C(C)(C)n1c(=O)c2c(C)c(-n3nccn3)sc2n(C[C@H](OC2CCOCC2)c2ccccc2OC)c1=O [Compound I-032]	–	–	–	–	–	–	–	–	0.4 (≈ 0.67 µM)	≥ 2	10 (≈ 16.8 µM)	0.08 (≈ 0.134 µM)	10 (≈ 16.8 µM)	> 50	10 (≈ 16.8 µM)	> 50	–	–
CCOC(=O)c1sc2c(c1C)c(=O)n(C(C)(C)C(=O)NC(C)C)c(=O)n2C[C@H](OCCC#N)c1cc(F)ccc1OC [Compound I-300]	–	–	–	–	–	–	–	–	–	–	–	–	–	–	–	–	0.08	>50
CCOC(=O)c1sc2c(c1C)c(=O)n([C@H](C)C(=O)NC(C)C)c(=O)n2C[C@H](OCCC#N)c1cc(F)ccc1OC [Compound I-330]	–	–	–	–	–	–	–	–	–	–	–	–	–	–	–	–	2	>50

Second part, led by results:

IC90 (Botrtyis cinerea (Bc); [5]) [µg/mL]	IC90 [1, 6] [µg/mL]	IC90 (Diplodia maydis (Dm); [7]) [µg/mL]	IC90 [2, 8] [µg/mL]	IC90 [3, 9] [µg/mL]	IC90 [4, 10] [µg/mL]	IC90 (Rhizoctonia solani (Rs); [11]) [µg/mL]	IC90 (Septoria tritici (St); [12]) [µg/mL]	IC90 (Botrtyis cinerea (Bc); [13]) [µg/mL]	IC90 [1, 14] [µg/mL]	IC90 (Diplodia maydis (Dm); [15]) [µg/mL]	IC90 [2, 16] [µg/mL]	IC90 [3, 17] [µg/mL]	IC90 [4, 18] [µg/mL]	IC90 (Rhizoctonia solani (Rs); [19]) [µg/mL]	IC90 (Septoria tritici (St); [20]) [µg/mL]	Compound	Compound Concentration (ppm) sufficient for ≥90% inhibition of Rs (Rhizoctonia solani (Rs); [21]) [ppm]	Compound Concentration (ppm) sufficient for ≥90% inhibition of St (Septoria tritici (St); [21]) [ppm]
2 (≈ 3.49 µM)	10 (≈ 17.5 µM)	10 (≈ 17.5 µM)	0.4 (≈ 0.699 µM)	2 (≈ 3.49 µM)	> 50	2 (≈ 3.49 µM)	> 50	–	–	–	–	–	–	–	–	CCNC(=O)C(C)(C)n1c(=O)c2c(C)c(-n3nccn3)sc2n(C[C@H](OC(C)=O)c2cc(F)ccc2OC)c1=O [Compound I-324]	–	–
10 (≈ 15.6 µM)	50 (≈ 78.2 µM)	50 (≈ 78.2 µM)	2 (≈ 3.13 µM)	2 (≈ 3.13 µM)	> 50	10 (≈ 15.6 µM)	> 50	–	–	–	–	–	–	–	–	CCOC(=O)c1ccc(F)cc1[C@H](Cn1c(=O)n(C(C)(C)C(=O)NC(C)C)c(=O)c2c(C)c(-n3nccn3)sc21)OCCC#N [Compound I-335]	–	–
–	–	–	–	–	–	–	–	2 (≈ 3.41 µM)	≥ 2	2 (≈ 3.41 µM)	0.4 (≈ 0.682 µM)	≥ 2	> 50	10 (≈ 17 µM)	> 50	COCCO[C@@H](Cn1c(=O)n(CC(=O)N2CCCC2)c(=O)c2c(C)c(-n3nccn3)sc21)c1cc(F)ccc1OC [Compound I-141]	–	–
–	–	–	–	–	–	–	–	0.08 (≈ 0.125 µM)	2 (≈ 3.12 µM)	≥ 0.08	0.08 (≈ 0.125 µM)	0.4 (≈ 0.624 µM)	50 (≈ 78 µM)	0.08 (≈ 0.125 µM)	> 50	COc1ccc(F)cc1[C@H](Cn1c(=O)n(C(C)(C)C(=O)NC(C)C)c(=O)c2c(C)c(-n3nccn3)sc21)OC1CCC(=O)CC1 [Compound I-050]	–	–
